Experimental findings from ChEMBL document CHEMBL6109047, “Synthesis strategies and anti-parasitic evaluation of novel compounds for chagas disease: Advancing drug discovery through structure-activity relationships” (Eur J Med Chem, 2025) are described below.

pEC50, pIC50: −log10 of the molar value.

For series [1], the system named is Trypanosoma cruzi. As to the kind of experiment: Antitrypanosomal activity against bloodstream trypomastigote form of Trypanosoma cruzi Y. It is filed as functional, organism-based.
Series [2] deals with Trypanosoma cruzi. The experiment in a line: Antitrypanosomal activity against bloodstream trypomastigote form of Trypanosoma cruzi Y assessed as parasite growth inhibition incubated for 24 hrs by light microscopic analysis. It is filed as functional, organism-based.
A short description of series [3]: Toxicity in CD-1 mouse infected with Trypanosoma cruzi Y MHOM/MX/1994/NINOA from blood stream trypomastigotes assessed as reduction in parasite growth by measuring lethal concentration. Conditions: in vivo, 24 h.
The nature of series [4]: Toxicity in CD-1 mouse infected with Trypanosoma cruzi Y MHOM/MX/1994/INC5 from blood stream trypomastigotes assessed as reduction in parasite growth by measuring lethal concentration. The settings on record: in vivo, 24 h.
Series [5] deals with Trypanosoma cruzi. As to the kind of experiment: Trypanocidal activity against Trypanosoma cruzi NINOA epimastigotes incubated for 24 hrs by Neubauer chamber method. The series is classed as functional, organism-based.
Series [6] relates to Trypanosoma cruzi. As to the kind of experiment: Antitrypanosomal activity against Trypanosoma cruzi Tulahuen-2 infected in […] J774 cells assessed as inhibition of parasite proliferation. The series is classed as functional, organism-based. The settings on record: Tulahuen-2, J774.
For series [7], the system named is Trypanosoma cruzi. The experiment in a line: Trypanocidal activity against Trypanosoma cruzi Tulahuen-2 epimastigotes incubated for 24 hrs by Neubauer chamber method. It is filed as functional, organism-based. Conditions: Tulahuen-2, 24 h.
Series [8] has as its system Trypanosoma cruzi. The experiment in a line: Anti-trypanosomal activity against Trypanosoma cruzi Y trypomastigotes infected in mouse RAW264.7 cells assessed as inhibition of parasite release measured for 48 hrs. Conditions: RAW264.7, 48 h. The series is classed as functional, organism-based.
Series [9] relates to Trypanosoma cruzi. The experiment in a line: Antitrypanosomal activity against Trypanosoma cruzi Y strain trypomastigotes Vero cells assessed as inhibition of parasite growth incubated for 24 hrs by Neubauer chamber based analysis. It is filed as functional, organism-based.
The nature of series [10]: Toxicity in CD-1 mouse infected with Trypanosoma cruzi Y trypomastigotes assessed as mortality at 50 mg/kg/day, po pre-infected with parasite followed by compound addition and measured after 15 days relative to control. It is filed as organism-based. Conditions: in vivo, 360 h, time 15 day.
Series [11] relates to Trypanosoma cruzi. The experiment in a line: Antitrypanosomal activity against Trypanosoma cruzi Tulahuen amastigotes expressing Escherichia coli beta-galactosidase infected in LLC-MK2 cells incubated for 48 hrs. The series is classed as functional, organism-based. Conditions: LLC-MK2, 48 h.
Series [12] in a line: Cytotoxicity against rhesus monkey LLC-MK2 cells. It is filed as toxicity, cell-based, Macaca mulatta.
Series [13] has as its system Trypanosoma cruzi. The experiment in a line: Antitrypanosomal activity against bloodstream […] form of Trypanosoma cruzi Y. The series is classed as functional, organism-based.
In series [14] the test system is Trypanosoma cruzi. The experiment in a line: Antitrypanosomal activity against bloodstream trypomastigote form of Trypanosoma cruzi Y assessed as reduction in parasite growth. The series is classed as functional, organism-based.

As a reminder, the pIC50 is the IC50 on a negative log10 scale, so that one unit is a factor of ten. In turn, `CC(C)(C)C1CCc2oc3c(c2C1)C(=O)c1ccccc1C3=O` (stereo not given) had a pIC50 in the series on Trypanosoma cruzi [1] of 7.48.

Take `CCOC(=O)c1csc(N/N=C(\C)c2ccccc2)n1`: in the series on Trypanosoma cruzi [2], the pIC50 is 5.55.

What is called LC50 is the concentration lethal to half of the exposed cells or organisms. Regarding `Fc1cccc(F)c1CSc1nc2ccccc2s1`, the figures for the LC50 in series [3] and in series [4] were 110 µM and 260 µM, respectively.

In the series on Trypanosoma cruzi [1], `CC1CCc2oc3c(c2C1)C(=O)C(=O)c1ccccc1-3` (stereo not given) gave a pIC50 of 7.13.

In turn, `CC1CCc2oc3c(c2C1)C(=O)c1ccccc1C3=O` (stereo not given) showed a pIC50 with Trypanosoma cruzi [1] of 7.51.

For the compound `COc1cc(OC)cc(OC2=C(Oc3cc(OC)cc(OC)c3OC)C(=O)c3ccccc3C2=O)c1`, the results for the pIC50 in the series with Trypanosoma cruzi [5], with Trypanosoma cruzi [6] and in the series with Trypanosoma cruzi [7] were 5.89, 4.37 and 6.31, respectively.

Turning to `COc1ccc(/C(CN2C(=O)c3ccccc3C2=O)=N\Nc2nc(-c3ccc(OC)cc3)cs2)cc1`, the pIC50 with Trypanosoma cruzi [8] was 5.35.

As a reminder, the CC50 is the concentration at which the toxic effect on the cells reaches its halfway point. Take `O=C(Cn1ccnc1[N+](=O)[O-])NCc1ccccc1` [BENZNIDAZOLE]: the pIC50 was 4.04 in the series on Trypanosoma cruzi [1], 4.46 with Trypanosoma cruzi [2], 5.20 in the series on Trypanosoma cruzi [9] and 5.25 with Trypanosoma cruzi [11]. Further, the Activity in series [10] was found to be 68.3%. In addition, the CC50 at 48 h in [12] is 156 µM.

Consider `Fc1cccc(Nc2cnc3ccccc3c2)c1`, for which the pIC50 in the series with Trypanosoma cruzi [1] is 3.38; in the series with Trypanosoma cruzi [13] it was 4.64; in the series on Trypanosoma cruzi [7], 4.87.

As for `Fc1ccc(Nc2cnc3ccccc3c2)cc1`, the pIC50 in the series on Trypanosoma cruzi [1] is 3.21; in the series on Trypanosoma cruzi [13], 4.96; in the series on Trypanosoma cruzi [7] it was 4.95.

For `COC(=O)/C=C/c1ccc2c(c1)C(C(=O)OC)C(c1ccc(O)cc1)O2` (stereo not given), the pIC50 with Trypanosoma cruzi [13] is 5.49; in the series with Trypanosoma cruzi [11], 4.93. In [12], this compound showed a CC50 at 48 h of 49.9 µM.

Regarding `CS/C(N)=N\N=C\c1c(C(F)(F)F)nn(-c2ccccc2)c1-c1ccc(Br)cc1`, the pIC50 in the series with Trypanosoma cruzi [1] is 4.59.

`NC(=S)N/N=C(\C=C\c1ccc(Cl)cc1)c1ccccc1` had a pIC50 in the series with Trypanosoma cruzi [11] of 4.91.

Turning to `CCOC(=O)c1csc(N/N=C/c2ccco2)n1`, the negative logarithm of the IC50 (pIC50) in the series with Trypanosoma cruzi [2] is 5.56.

For the compound `c1ccc(CSc2nc3ccccc3s2)cc1`, the 50% lethal concentration (LC50) came to 123 µM in series [3] and 336 µM in [4].

In general, pEC50 refers to the negative decadic logarithm of the EC50, by convention in mol/L. Turning to `COc1cccc(/C=C/c2ccc3cccc(O)c3n2)c1CC(=O)O`, the pEC50 with Trypanosoma cruzi [14] is 4.44.

For the compound `C/C(=N\N=C1/NC(=O)C(c2ccccc2)S1)c1cc(Cl)ccc1Cl` (stereo not given), the pIC50 with Trypanosoma cruzi [9] is 6.07.

As to `Fc1c(F)c(F)c(CSc2nc3ccccc3s2)c(F)c1F`, the results for the LC50 in series [3] and in [4] were 147 µM and 185 µM, respectively.

`C/C(=N\N=C1\NC(=O)C(c2ccccc2)S1)c1ccc(Cl)cc1Cl` (stereo not given): the negative-log IC50 (pIC50) in the series with Trypanosoma cruzi [9] is 5.95.

On to `Cc1ccc(OC2=C(Br)C(=O)c3ccccc3C2=O)c(C)c1`, for which the pIC50 with Trypanosoma cruzi [5] is 5.77; in the series on Trypanosoma cruzi [6] it was 4.29; in the series on Trypanosoma cruzi [7], 6.35.

Turning to `Clc1ccc(Nc2cnc3ccccc3c2)cc1`, the results for the pIC50 in the series on Trypanosoma cruzi [1], in the series on Trypanosoma cruzi [13] and with Trypanosoma cruzi [7] were under 3.30, 4.59 and 4.92, respectively.

On to `O=C1c2ccccc2C(=O)c2c1oc1c2CCCC1`, for which, in the series on Trypanosoma cruzi [1], the pIC50 was 6.89.

Compound `O=C1C(=O)c2c(oc3c2CCCC3)-c2ccccc21` had a pIC50 in the series on Trypanosoma cruzi [1] of 7.19.

Take `CCOC(=O)c1csc(N/N=C/c2cccc(Cl)c2)n1`: in the series on Trypanosoma cruzi [2], the pIC50 was 5.35.

In the case of `COC(=O)/C=C/c1ccc2c(c1)C(C(=O)OC)C(c1ccc(O)c(OC)c1)O2` (stereo not given), the pIC50 in the series with Trypanosoma cruzi [11] was 5.10. In series [12], this compound came in with a CC50 at 48 h of 0.86 µM.

As to `NC(=S)N/N=C/c1c(C(F)(F)F)nn(-c2ccccc2)c1-c1ccc(Br)cc1`, the pIC50 in the series with Trypanosoma cruzi [1] was 4.52.

Regarding `O=C1c2ccccc2C(=O)N1C/C(=N/NC(=S)Nc1ccccc1)c1ccc(Cl)cc1Cl`, in the series on Trypanosoma cruzi [8], the pIC50 is 5.44.

For the compound `O=C(Cn1cccc1[N+](=O)[O-])Nc1cccc(C(F)(F)F)c1`, the CC50 at 48 h in series [12] amounted to 2.1 µM.

For the compound `O=C(O)Cc1ccccc1/C=C/c1ccc2cccc(O)c2n1`, the pEC50 with Trypanosoma cruzi [14] is 4.39.

Consider `O=C(N/N=C/c1ccc(F)cc1)c1ccccc1`, for which, in series [10], the Activity worked out at 46.2%.

For `CCOC(=O)c1csc(N/N=C/c2ccccc2Br)n1`, the pIC50 with Trypanosoma cruzi [2] was 6.08.

Take `COc1ccc(-c2c(/C=N/N=C(/N)SC)c(C(F)(F)F)nn2-c2ccccc2)cc1`: the pIC50 in the series on Trypanosoma cruzi [1] is 4.72.

As to `CCC1S/C(=N\N=C(/C)c2ccc(Cl)cc2Cl)NC1=O` (stereo not given), in the series on Trypanosoma cruzi [9], the pIC50 is 5.59.

`O=C1c2ccccc2C(=O)N1C/C(=N/NC(=S)Nc1ccccc1)c1ccc(F)cc1`: in the series with Trypanosoma cruzi [8], the pIC50 is 5.43.
